pIC50: −log10 of the molar value. Where a name gives a salt, the structure may show the parent alone. Read-outs that look alike come from different tables or passages of the source.
Molecular target: PLK1 (Homo sapiens, UniProt P53350)
Experiment: In vitro PLK1 ELISA assay (biochemical)
Set-up: purchased Cell Signalling 7728
Conditions: for IC50: ELISA, CHK2-derived peptide substrate, read-out: PLK1 IC50 (μM) biochemical assay
Description: Inhibition of PLK1 was measured by quantifying phosphorylation of PLK1 substrates using chemiluminescent and fluorogenic probes. The protocols for these assays are provided below.
In Vitro PLK1 ELISA Assay
1. Preparation of Assay Plates.
Costar 96-well black or white solid flat high binding plates (Fisher Scientific, Catalog No. 07-200-591) were coated with Neutravidin (Pierce, Catalog No. 31000) using the following protocol. A 0.01 mg/mL solution of Neutravidin in 1× Phosphate Buffered Saline (“PBS”, Cellgro/Mediatech, Catalog No. 21-040-CV) was added to each well (100 μL/well) and was incubated for 18-24 hours at 4° C. The plates were then washed with 1× Phosphate Buffer Saline—Tween (“PBST”, Calbiochem, Catalog No. 524653) buffer using a plate washer. The plates were treated with bovine serum albumin (“BSA”, Sigma, Catalog No. A7906) to block non-specific binding sites, by adding a 2% BSA solution in 1×PBST buffer to each well (100 μL/well) and incubating the plates for 1 hour at room temperature. The plates were then washed with 1×PBST buffer using a plate washer.
2. PLK1-Catalyzed Phosphorylation Reaction
An aqueous buffer solution A having the following composition was prepared:
20 mM HEPES (Cellgro/Mediatech, Catalog No. 25-060Ci), pH 7.2;
5 mM MgCl2 (Sigma, Catalog No. M2393);
2 mM MnCl2.4H2O (EM Biosciences, Catalog No. MX0185-2);
1 mM Dithiothreitol (“DTT”, Fluka, Catalog No. B4184).
Next, the substrate solution B was prepared by adding 2.6 μL of 10 mM ATP (Sigma, Catalog No. A7699) and 6.4 μL of the 1 mM PLK1 substrate, CHK2-derived peptide Biotin-SSLETVSTQELYSIP (custom synthesized at Anaspec) SEQ ID: No. 1, to 4691 μL of the buffer solution A. The concentration of the ATP in solution B is 5.44 μM (1.36×); the concentration of the PLK1 substrate in solution B is 1.36 μM (1.36×).
Compound solutions C of varying concentrations for each compound were prepared by dissolving each compound in dimethylsulfoxide (DMSO, Sigma, Catalog No. D2650) to varying concentrations, followed by adding 2 μL of each solution to 38 μL of the buffer solution A, thereby forming 10× compound solutions in 5% DMSO.
A PLK1 solution D was prepared by adding 8.4 μL of 100 μg/mL PLK1 (Cell Signalling, Catalog No. 7728) to 1392 μL of the buffer solution A, thereby forming 0.6 μg/mL (6×) PLK1 solution.
The aqueous 1.36× substrate solution B was added to each well (44 μL/well) resulting in binding of the substrate to the plate via biotin/neutravidin interaction. Then 10× compound solutions C for each tested compound at each tested concentration were added to each well (6 μL/well). Next, 6×PLK1 solution D was added to each well (10 μL/well).
The final concentrations of tested compounds in each well were 10 μM, 3.3 μM, 1.1 μM, 0.36 μM, 0.12 μM, 0.04 μM, 0.014 μM, and 0.005 μM.
The obtained reaction mixtures were incubated in the wells for 45 minutes at room temperature, allowing PLK1-catalyzed phosphorylation of the substrate to proceed. The plates were then washed with 1×PBST solution using a plate washer, such that the bound phosphorylated or unphosphorylated substrate remains attached to the wells upon washing.
The washed plates were developed by treating the plates with a primary antibody that is specific for the phosphorylated substrate, followed by treatment with a secondary antibody that is specific for the primary antibody, and that is capable of catalyzing a reaction that results in a chemiluminescent readout. The chemiluminescent readout was used to quantify the substrate phosphorylation, and, consequently, to determine IC50 values for PLK1 inhibition, and was measured using a luminometer (Perkin Elmer/Wallac plate reader). The plate development protocol is described below.
A mixed antibody solution E was prepared by adding 1 μL of the primary antibody, rabbit p-CHK2(T68) (Rockland, Catalog No. 401280), and 1 μL of the secondary antibody, HRP-goat anti-rabbit IgG (Jackson Immunoresearch Catalog No. 111-035-003) to 10000 μL of 0.1% BSA in 1×PBST buffer. […]

[1] = read-out: IC50 in biochemical in vitro PLK1 ELISA assay (less than 10 μM)
[2] = read-out: IC50 in biochemical ELISA assay (less than 0.01 μM)

PLK1, sequence (P53350 whole entry): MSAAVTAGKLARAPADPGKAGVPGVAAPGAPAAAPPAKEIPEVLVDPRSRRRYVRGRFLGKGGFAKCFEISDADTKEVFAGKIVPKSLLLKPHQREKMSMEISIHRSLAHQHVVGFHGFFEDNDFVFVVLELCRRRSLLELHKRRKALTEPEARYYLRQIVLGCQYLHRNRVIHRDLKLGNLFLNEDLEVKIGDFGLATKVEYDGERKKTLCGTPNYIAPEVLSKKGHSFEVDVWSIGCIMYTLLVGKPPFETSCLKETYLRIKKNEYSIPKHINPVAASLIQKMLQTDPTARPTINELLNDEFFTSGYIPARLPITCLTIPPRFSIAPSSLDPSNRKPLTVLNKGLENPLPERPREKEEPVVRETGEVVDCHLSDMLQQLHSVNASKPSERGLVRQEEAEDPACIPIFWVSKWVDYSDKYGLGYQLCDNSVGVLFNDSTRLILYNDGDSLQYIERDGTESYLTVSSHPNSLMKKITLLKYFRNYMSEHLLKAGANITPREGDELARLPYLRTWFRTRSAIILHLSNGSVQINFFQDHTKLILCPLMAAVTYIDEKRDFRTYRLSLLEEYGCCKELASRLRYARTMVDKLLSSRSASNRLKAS

| SMILES | IC50 | pIC50 [1] | pIC50 [2] |
| --- | --- | --- | --- |
| CN1CCN(c2cccc(Nc3ncc(F)c(N(CC4CCC4)c4ccc5c(n4)NCCO5)n3)c2)CC1 [compound 4, N4-(cyclobutylmethyl)-N4-(3,4-dihydro-2H-pyrido[3,2-b][1,4]oxazin-6-yl)-5-fluoro-N2-(3-(4-methylpiperazin-1-yl)phenyl)pyrimidine-2,4-diamine] | 5 to 10 µM | > 5.00 |  |
| CN1CCN(c2cccc(Nc3ncc(F)c(N(CC4CCCCC4)c4ccc5c(n4)NCCO5)n3)c2)CC1 [compound 7, N4-(cyclohexylmethyl)-N4-(3,4-dihydro-2H-pyrido[3,2-b][1,4]oxazin-6-yl)-5-fluoro-N2-(3-(4-methylpiperazin-1-yl)phenyl)pyrimidine-2,4-diamine] | ≥ 10 µM |  |  |
| CC(C)c1cc(Nc2ncc(F)c(Nc3ccc4c(n3)NC(=O)CO4)n2)ccc1N1CC2CC1CN2C (stereo not drawn) [compound 8, 6-(5-fluoro-2-(3-isopropyl-4-(5-methyl-2,5-diazabicyclo[2.2.1]heptan-2-yl)phenylamino)pyrimidin-4-ylamino)-2H-pyrido[3,2-b][1,4]oxazin-3(4H)-one] | ≥ 10 µM |  |  |
| CN1CCN(c2cccc(Nc3ncc(F)c(N(c4ccc5c(n4)NCCO5)C4CCCCC4)n3)c2)CC1 [compound 9, N4-cyclohexyl-N4-(3,4-dihydro-2H-pyrido[3,2-b][1,4]oxazin-6-yl)-5-fluoro-N2-(3-(4-methylpiperazin-1-yl)phenyl)pyrimidine-2,4-diamine] | ≥ 10 µM |  |  |
| CC(C)c1cc(Nc2ncc(F)c(Nc3ccc4c(n3)NCCO4)n2)ccc1N1CC2CC1CN2C (stereo not drawn) [compound 10, N4-(3,4-dihydro-2H-pyrido[3,2-b][1,4]oxazin-6-yl)-5-fluoro-N2-(3-isopropyl-4-(5-methyl-2,5-diazabicyclo[2.2.1]heptan-2-yl)phenyl)pyrimidine-2,4-diamine] | ≥ 10 µM |  |  |
| COC(=O)c1cnc(Nc2cccc(N3CCN(C)CC3)c2)nc1Nc1ccc2c(n1)NCCO2 [compound 11, methyl 4-(3,4-dihydro-2H-pyrido[3,2-b][1,4]oxazin-6-ylamino)-2-(3-(4-methylpiperazin-1-yl)phenylamino)pyrimidine-5-carboxylate] | ≥ 10 µM |  |  |
| CN1CCN(c2cccc(Nc3ncc(C(=O)O)c(Nc4ccc5c(n4)NCCO5)n3)c2)CC1 [compound 12, 4-(3,4-dihydro-2H-pyrido[3,2-b][1,4]oxazin-6-ylamino)-2-(3-(4-methyl-piperazin-1-yl)phenyl-amino)pyrimidine-5-carboxylic acid] | ≥ 10 µM |  |  |
| CN1CCN(c2cccc(Nc3nccc(Nc4ccc5c(n4)NC(=O)CO5)n3)c2)CC1 [compound 13, 6-(2-(3-(4-methylpiperazin-1-yl)phenylamino)pyrimidin-4-ylamino)-2H-pyrido[3,2-b][1,4]oxazin-3(4H)-one] | ≥ 10 µM |  |  |
| CN1CCN(c2cccc(Nc3ncc(F)c(N(c4ccc5c(n4)NCCO5)C4CCC4)n3)c2)CC1 [compound 15, N4-cyclobutyl-N4-(3,4-dihydro-2H-pyrido[3,2-b][1,4]oxazin-6-yl)-5-fluoro-N2-(3-(4-methylpiperazin-1-yl)phenyl)pyrimidine-2,4-diamine] | 0.5 to 5 µM | > 5.00 |  |
| CN1CC2CC1CN2c1ccc(Nc2ncc(F)c(Nc3ccc4c(n3)NCCO4)n2)cc1C(F)(F)F (stereo not drawn) [compound 57, N4-(3,4-dihydro-2H-pyrido[3,2-b][1,4]oxazin-6-yl)-5-fluoro-N2-(4-(5-methyl-2,5-diazabicyclo[2.2.1]heptan-2-yl)-3-(trifluoro-methyl)phenyl)pyrimidine-2,4-diamine] | ≥ 10 µM |  |  |

Further lines, results first:

| IC50 | pIC50 [1] | pIC50 [2] | SMILES |
| --- | --- | --- | --- |
| < 0.5 µM | > 5.00 |  | COc1cc(Nc2ncc(F)c(Nc3ccc4c(n3)NC(=O)CO4)n2)cc(N2CCN(C)CC2)c1 [compound 3, 6-(5-fluoro-2-(3-methoxy-5-(4-methylpiperazin-1-yl)phenylamino)pyrimidin-4-ylamino)-2H-pyrido[3,2-b][1,4]oxazin-3(4H)-one] |
| < 0.5 µM | > 5.00 | > 8.00 | COc1cc(Nc2ncc(F)c(Nc3ccc4c(n3)NCCO4)n2)cc(N2CCN(C)CC2)c1 [compound 5, N4-(3,4-dihydro-2H-pyrido[3,2-b][1,4]oxazin-6-yl)-5-fluoro-N2-(3-methoxy-5-(4-methylpiperazin-1-yl)phenyl)pyrimidine-2,4-diamine] |
| < 0.5 µM | > 5.00 | > 8.00 | CN1CCN(c2cccc(Nc3ncc(C(F)(F)F)c(Nc4ccc5c(n4)NC(=O)CO5)n3)c2)CC1 [compound 6, 6-(2-(3-(4-methylpiperazin-1-yl)phenylamino)-5-(trifluoro-methyl)pyrimidin-4-ylamino)-2H-pyrido[3,2-b][1,4]oxazin-3(4H)-one] |
| ≥ 10 µM |  |  | CN1CCN(c2cc(Nc3ncc(F)c(Nc4ccc5c(n4)NC(=O)CO5)n3)cc(OCC3CCC3)c2)CC1 [compound 14, 6-(2-(3-(cyclobutylmethoxy)-5-(4-methylpiperazin-1-yl)phenylamino)-5-fluoropyrimidin-4-ylamino)-2H-pyrido[3,2-b][1,4]oxazin-3(4H)-one] |
| < 0.5 µM | > 5.00 |  | CN1CCN(c2cc(Nc3ncc(F)c(Nc4ccc5c(n4)NCCO5)n3)cc(OCC3CCC3)c2)CC1 [compound 16, N2-(3-(cyclobutylmethoxy)-5-(4-methylpiperazin-1-yl)phenyl)-N4-(3,4-dihydro-2H-pyrido[3,2-b][1,4]oxazin-6-yl)-5-fluoropyrimidine-2,4-diamine] |
|  |  | > 8.00 | CN1CCN(c2cccc(Nc3ncc(F)c(Nc4ccc5c(n4)NC(=O)CO5)n3)c2)CC1 [compound 19, 6-(5-fluoro-2-(3-(4-methylpiperazin-1-yl)phenylamino)pyrimidin-4-ylamino)-2H-pyrido[3,2-b][1,4]oxazin-3(4H)-one hydrochloride] |
| 0.5 to 5 µM | > 5.00 |  | Cc1cc(Nc2ncc(F)c(Nc3ccc4c(n3)N(CC3CC3)C(=O)CO4)n2)ccc1N1CCN(C)CC1 [compound 111, 4-(cyclopropylmethyl)-6-(5-fluoro-2-(3-methyl-4-(4-methylpiperazin-1-yl)phenylamino)pyrimidin-4-ylamino)-2H-pyrido[3,2-b][1,4]oxazin-3(4H)-one] |
|  |  | > 8.00 | CN1CCN(c2cccc(Nc3ncc(F)c(Nc4ccc5c(n4)NCCO5)n3)c2)CC1 [compound 168, N4-(3,4-dihydro-2H-pyrido[3,2-b][1,4]oxazin-6-yl)-5-fluoro-N2-(3-(4-methylpiperazin-1-yl)phenyl)pyrimidine-2,4-diamine p-toluene sulfonic acid salt] |

— US9040527B2, “Pyrimidinediamine kinase inhibitors” (Rigel Pharmaceuticals, Inc., priority 2008, dated 2015)
